Values belong to the compound of their own block, whether it stands above or below them.
How the values were obtained:
[1] = Maximum absorbance wavelength in pH 7.4 phosphate-buffered saline; type: physicochemical; conditions: for λmax: 2 μM in 0.1 M PBS
Experimental: Table 1 includes exemplary compounds according to formula II, in which n is 2, R^1 is —CH2—, m is 2, R^2 is methyl, R^14 to R^17 are methyl, and R^5, R^6, R^8, R^10, R^11 and R^13 are hydrogen. Other substituents are as indicated. The maximum absorbance wavelength (λmax) was measured in pH 7.4 phosphate-buffered saline.
Unless stated otherwise, reactions were conducted in oven-dried glassware under an atmosphere of nitrogen or argon using anhydrous solvents (passed through activated alumina columns) All other commercially obtained reagents were used as received. […] Flash column chromatography was performed using normal phase or reverse phase on a CombiFlash® Rf 200i (Teledyne Isco Inc.). […] Data for ^1H NMR spectra are reported as follows: chemical shift (6 ppm), multiplicity, coupling constant (Hz), and integration. ^13C NMR spectra were recorded on Varian spectrometers (at 100 or 125 MHz). Data for ^13C NMR spectra are reported in terms of chemical shift. IR spectra were recorded on a JASCO FT/IR 4100 spectrometer and are reported in terms of frequency of absorption (cm^−1). High-resolution LC/MS analyses were conducted on a Thermo-Fisher LTQ-Orbitrap-XL hybrid mass spectrometer system with an Ion MAX API electrospray ion source in positive ion mode. Separations were carried out on a narrow-bore (50×2.1 mm), Zorbax Rapid-Resolution, reversed-phase C18 (3.5 μm) column with a flow rate of 250 μL/min with a 10 min, 2-90% gradient of MeCN/H2O containing 0.1% HCOOH. […] Fluorescence traces and quantum yield measurements were recorded on a PTI QuantaMaster steady-state spectrofluorimeter operated by FelixGX 4.0.3 software, with 10 nm excitation and emission slit widths, 0.1 s integration rate, and enabled emission correction.

[2] = Quantum yields, molar absorption coefficients, absorbance and emission spectra; type: physicochemical; conditions: for ε (M^−1cm^−1): Table 4 footnote: methanol, method b204: PBS, 25° C.; for λem (nm) / λmax (nm): methanol
[3] = methanol; James et al., Theranostics 2013; cited from earlier work
[4] = type: physicochemical; conditions: buffer, pH 7.4
Experimental: Solutions of commercially available IRDye 800 CW (a phenol-substituted heptamethine cyanine available from Li-Cor Biotechnology, Lincoln, Nebr.) and compound 13 (Glut-Cy-503), 10 μM, were prepared in pH 7.4 phosphate-buffered saline and exposed to physiologically relevant concentrations of glutathione (GSH, 1 mM) at room temperature. […] Upon analysis by LCMS, signals consistent with the glutathione adduct were observed concomitant with the disappearance of the phenol (IRDye 800 CW) (FIG. 7).

broad hypsochromic absorbance maximum ([1]; solvent not given): 687 nm
SMILES: CCCN1/C(=C/C=C2\CCCC(/C=C/C3=[N+](CCC)c4ccccc4C3(C)C)=C2N(C)CCO)C(C)(C)c2ccccc21 [Compound 6]

λmax ([1]; pH 7.4, with 20% DMSO (v/v)): 763 nm | λex [2]: 774 nm | ε (M^−1cm^−1) [2]: 187,000 M^−1cm^−1 | Φf ([2]; measured in methanol relative to ICG): 0.22 | λem (nm) [2]: 797 nm | λmax (nm) [2]: 774 nm
SMILES: CCCN1/C(=C/C=C2\CCCC(/C=C/C3=[N+](CCC)c4ccccc4C3(C)C)=C2OCCN(C)C(=O)OCc2ccccc2)C(C)(C)c2ccccc21 [Compound 8]

λmax ([1]; pH 7.4, with 0.1% DMSO (v/v)): 760 nm
SMILES: CCCN1/C(=C/C=C2\CCCC(/C=C/C3=[N+](CCC)c4ccccc4C3(C)C)=C2OCCN(C)C(=O)CCCC(=O)O)C(C)(C)c2ccccc21 [Compound 10]

ε (M^−1cm^−1) [2]: 204,000 M^−1cm^−1 | λem (nm) [2]: 822 nm | λmax (nm) [2]: 785 nm
SMILES: CC1(C)C(/C=C/C=C/C=C/C=C2\N(CCCCS(=O)(=O)O)c3ccc4ccccc4c3C2(C)C)=[N+](CCCCS(=O)(=O)[O-])c2ccc3ccccc3c21 [ICG, indocyanine green, reference compound]
Φf of standard [3]: 0.078

Continued, compound first:

SMILES: CCCN1/C(=C/C=C2\CCCC(/C=C/C3=[N+](CCC)c4ccccc4C3(C)C)=C2OCCN(C)C(=O)OCC2c3ccccc3-c3ccccc32)C(C)(C)c2ccccc21 [Compound 9]
λmax ([1]; pH 7.4, with 20% DMSO (v/v)): 765 nm

SMILES: CC1(C)C(=CC=C2CCCC(C=CC3=[N+](CCCCCC(=O)[O-])c4ccc(S(=O)(=O)[O-])cc4C3(C)C)=C2Oc2ccc(S(=O)(=O)[O-])cc2)N(CCCCS(=O)(=O)[O-])c2ccc(S(=O)(=O)[O-])cc21.[Na+].[Na+].[Na+].[Na+] [IRDye 800 CW]
t1/2 of degradation to the glutathione adduct [4]: 50 min

SMILES: CC1(C)C(=CC=C2CCCC(C=CC3=[N+](CCCCS(=O)(=O)[O-])c4ccccc4C3(C)C)=C2Cl)N(CCCCS(=O)(=O)[O-])c2ccccc21.[Na+] [IR783]
Φf of standard [3]: 0.084
